In one experiment the target is T1, PDE10 (UniProt Q8CA95).
T1 sequence (Q8CA95 1-790): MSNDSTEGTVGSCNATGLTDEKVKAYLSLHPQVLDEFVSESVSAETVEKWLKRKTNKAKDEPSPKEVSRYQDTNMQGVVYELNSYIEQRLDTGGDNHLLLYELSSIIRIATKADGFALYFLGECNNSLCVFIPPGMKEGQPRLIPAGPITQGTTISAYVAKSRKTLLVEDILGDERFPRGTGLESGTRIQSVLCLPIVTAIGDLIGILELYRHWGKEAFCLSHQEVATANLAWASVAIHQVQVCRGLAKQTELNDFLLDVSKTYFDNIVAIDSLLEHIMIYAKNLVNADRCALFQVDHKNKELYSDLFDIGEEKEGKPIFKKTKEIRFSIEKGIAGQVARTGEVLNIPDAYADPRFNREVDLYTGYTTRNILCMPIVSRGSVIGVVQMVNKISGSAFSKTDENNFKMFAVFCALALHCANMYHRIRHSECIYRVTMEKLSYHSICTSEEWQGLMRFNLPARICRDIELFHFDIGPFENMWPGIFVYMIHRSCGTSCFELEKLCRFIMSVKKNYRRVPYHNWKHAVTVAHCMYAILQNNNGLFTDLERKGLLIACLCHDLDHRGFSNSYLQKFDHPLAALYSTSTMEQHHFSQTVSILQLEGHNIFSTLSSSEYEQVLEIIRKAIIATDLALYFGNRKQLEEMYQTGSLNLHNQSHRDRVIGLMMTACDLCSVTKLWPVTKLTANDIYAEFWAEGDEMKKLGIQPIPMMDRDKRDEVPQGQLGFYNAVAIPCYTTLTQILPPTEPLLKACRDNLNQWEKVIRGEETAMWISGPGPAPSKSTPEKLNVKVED
As to the kind of experiment: PDE10 enzyme inhibition, IMAP TR-FRET assay (Example A: MPDE10A7 Enzyme Activity and Inhibition). Particulars: Table 1A, Examples 11-56; read-out: PDE10 IC50. The experiment is classed as biochemical. How it is done: MPDE10A7 Enzyme Activity and Inhibition Enzyme Activity. An IMAP TR-FRET assay was used to analyze the enzyme activity (Molecular Devices Corp., Sunnyvale Calif.). 5 μL of serial diluted PDE10A (BPS Bioscience, San Diego, Calif.) or tissue homogenate was incubated with equal volumes of diluted fluorescein labeled cAMP or cGMP for 60 min in 384-well polystyrene assay plates (Corning, Corning, N.Y.) at room temperature. After incubation, the reaction was stopped by adding 60 μL of diluted binding reagents and was incubated for 3 hours to overnight at room temperature. The plates were read on an Envision (Perkin Elmer, Waltham, Mass.) for time resolved fluorescence resonance energy transfer. The data were analyzed with GraphPad Prism (La Jolla, Calif.). Enzyme Inhibition. To check the inhibition profile, 5 μL of serial diluted compounds were incubated with 5 μL of diluted PDE10 enzyme (BPS Bioscience, San Diego, Calif.) or tissue homogenate in a 384-well polystyrene assay plate (Corning, Corning, N.Y.) for 30 min at room temperature. After incubation, 10 μL of diluted fluorescein labeled cAMP or cGMP substrate were added and incubated for 60 min at room temperature. The reaction was stopped by adding 60 μL of diluted binding reagents and plates were read on an Envision (Perkin Elmer, Waltham, Mass.) for time resolved fluorescence resonance energy transfer. The data were analyzed with GraphPad Prism (La Jolla, Calif.).
On to `Clc1ccc2[nH]c(C3CN(c4ncccc4Cl)C3)nc2c1` [Example 54, 5-chloro-2-(1-(3-chloropyridin-2-yl)azetidin-3-yl)-1H-benzo[d]imidazole], for which the IC50 is 7.81 nM.
For the compound `Clc1cccc(-c2nccnc2N2CC(c3nc4cc(Cl)ccc4[nH]3)C2)c1` [Example 31, 5-chloro-2-{1-[3-(3-chloro-phenyl)-pyrazin-2-yl]-azetidin-3-yl}-1H-benzoimidazole], the IC50 was 119 nM.
On the same count and under the same terms, to `c1ccc(-c2nccnc2N2CCC(c3nc4cc(C5CC5)ccc4[nH]3)CC2)cc1` [Example 13, 5-Cyclopropyl-2-[1-(3-phenyl-pyrazin-2-yl)-piperidin-4-yl]-1H-benzoimidazole] belongs 277 nM.
On to `CN(C)C(=O)c1nccnc1N1CC(c2nc3cc(Cl)ccc3[nH]2)C1` [Example 35, 3-[3-(5-chloro-1H-benzoimidazol-2-yl)-azetidin-1-yl]-pyrazine-2-carboxylic acid dimethylamide], for which the concentration for half-maximal inhibition (IC50) was found to be 10000 nM.
Consider `Clc1ccc2[nH]c(C3CN(c4ncccc4Br)C3)nc2c1` [Example 52, 2-(1-(3-bromopyridin-2-yl)azetidin-3-yl)-5-chloro-1H-benzo[d]imidazole], for which the IC50 came to 1820 nM.
Still for that read-out and setting: to `Clc1ccc2[nH]c(C3CN(c4nccnc4Nc4ccccc4)C3)nc2c1` [Example 40, 3-(3-(5-chloro-1H-benzo[d]imidazol-2-yl)azetidin-1-yl)-N-phenylpyrazin-2-amine] belongs 630 nM.
Take `Clc1ccc2[nH]c(C3CN(c4nccnc4-c4ccccc4Cl)C3)nc2c1` [Example 30, 5-chloro-2-{1-[3-(2-chloro-phenyl)-pyrazin-2-yl]-azetidin-3-yl}-1H-benzoimidazole]: the IC50 is 58.6 nM.
Turning to `O=C(NCCc1ccccc1)c1cccnc1N1CC(c2nc3cc(Cl)ccc3[nH]2)C1` [Example 20, 2-[3-(5-chloro-1H-benzoimidazol-2-yl)-azetidin-1-yl]-N-phenethyl-nicotinamide], the IC50 turned out to be 1680 nM.
Take `CC(C)NC(=O)c1cccnc1N1CC(c2nc3cc(Cl)ccc3[nH]2)C1` [Example 21, 2-[3-(5-chloro-1H-benzoimidazol-2-yl)-azetidin-1-yl]-N-isopropyl-nicotinamide]: the 50% inhibitory concentration (IC50) came out at 4780 nM.
With `O=C(Nc1ccccc1)c1cccnc1N1CC(c2nc3cc(Cl)ccc3[nH]2)C1` [Example 18, 2-[3-(5-chloro-1H-benzoimidazol-2-yl)-azetidin-1-yl]-N-phenyl-nicotinamide], the IC50 is 2600 nM.
Same read-out and setting: to `CN1CCN(c2nccnc2N2CC(c3nc4cc(Cl)ccc4[nH]3)C2)CC1` [Example 43, 5-chloro-2-(1-(3-(4-methylpiperazin-1-yl)pyrazin-2-yl)azetidin-3-yl)-1H-benzo[d]imidazole] belongs 305 nM.
Still for that read-out and setting: to `Clc1ccc2[nH]c(C3CN(c4nccnc4Cl)C3)nc2c1` [Example 53, 5-chloro-2-(1-(3-chloropyrazin-2-yl)azetidin-3-yl)-1H-benzo[d]imidazole] belongs 1160 nM; to `N#Cc1ccc2[nH]c(C3CCN(c4nccnc4N4CCOCC4)C3)nc2c1` (stereo not drawn) [Example 12, 2-[1-(3-Morpholin-4-yl-pyrazin-2-yl)-pyrrolidin-3-yl]-1H-benzoimidazole-5-carbonitrile], 535 nM.
Same read-out and setting: to `Cc1ccc2[nH]c(C3CN(c4nccnc4-c4ccccc4)C3)nc2c1` [Example 39, 5-methyl-2-(1-(3-phenylpyrazin-2-yl)azetidin-3-yl)-1H-benzo[d]imidazole] belongs 39.8 nM; to `Clc1ccc2[nH]c(C3CN(c4ncccc4C4CCOCC4)C3)nc2c1` [Example 56, 5-chloro-2-(1-(3-(tetrahydro-2H-pyran-4-yl)pyridin-2-yl)azetidin-3-yl)-1H-benzo[d]imidazole], 987 nM.
Turning to `N#Cc1ccc2[nH]c(C3CN(c4nccnc4-c4ccccc4)C3)nc2c1` [Example 14, 2-[1-(3-phenyl-pyrazin-2-yl)-azetidin-3-yl]-1H-benzoimidazole-5-carbonitrile], the IC50 was determined as 161 nM.
Still for that read-out and setting: the same measure for `Clc1ccc2[nH]c(C3CN(c4nccnc4-c4ccncc4)C3)nc2c1` [Example 34, 5-chloro-2-[1-(3-pyridin-4-yl-pyrazin-2-yl)-azetidin-3-yl]-1H-benzoimidazole]: 134 nM; for `O=C(NC1CCOCC1)c1nccnc1N1CC(c2nc3cc(Cl)ccc3[nH]2)C1` [Example 36, 3-[3-(5-chloro-1H-benzoimidazol-2-yl)-azetidin-1-yl]-pyrazine-2-carboxylic acid (tetrahydro-pyran-4-yl)-amide]: 3280 nM; for `CN(c1ccccc1)c1nccnc1N1CC(c2nc3cc(Cl)ccc3[nH]2)C1` [Example 41, 3-(3-(5-chloro-1H-benzo[d]imidazol-2-yl)azetidin-1-yl)-N-methyl-N-phenylpyrazin-2-amine]: 74 nM.

The experiment is the same for the next values; noted with them: Table 2A, Examples 61-64; read-out: IC50.
With `CC1CCN(c2nccnc2N2CC(c3ccc4ccccc4n3)C2)C1` (stereo not drawn) [Example 63, 2-{1-[3-(3-Methyl-pyrrolidin-1-yl)-pyrazin-2-yl]-azetidin-3-yl}-quinoline], the IC50 was 641 nM.
The same measure, in the same setting: the same measure for `COc1cccc(-c2nccnc2N2CC(c3ccc4ccccc4n3)C2)c1` [Example 64, 2-{1-[3-(3-Methoxy-phenyl)-pyrazin-2-yl]-azetidin-3-yl}-quinoline]: 17.5 nM.

Staying with this experiment, now noted: read-out: IC50.
`COc1cccc(-c2cccnc2N2CC(c3ccc4ccccc4n3)C2)c1` [Example 60, 2-{1-[3-(3-METHOXY-PHENYL)-PYRIDIN-2-YL]-AZETIDIN-3-YL}-QUINOLINE]: the IC50 came to 6820 nM.
On the same count and under the same terms, the same measure for `Cc1ccc2[nH]c(C3CN(c4c(Cl)cncc4Cl)C3)nc2c1` [Example 2A, 2-[1-(3,5-DICHLORO-PYRIDIN-4-YL)-AZETIDIN-3-YL]-5-METHYL-1H-BENZOIMIDAZOLE]: 210 nM.
Regarding `Clc1ccc2[nH]c(C3CN(c4nccnc4OC4CCOCC4)C3)nc2c1` [Example 10, 5-CHLORO-2-(1-(3-(TETRAHYDRO-2H-PYRAN-4-YLOXY)PYRAZIN-2-YL)AZETIDIN-3-YL)-1H-BENZO[D]IMIDAZOLE], the half-maximal inhibitory concentration (IC50) is 900 nM.
Take `Clc1ccc2[nH]c(C3CN(c4cc(C5CCOCC5)ncn4)C3)nc2c1` [Example 6, 5-CHLORO-2-(1-(6-(TETRAHYDRO-2H-PYRAN-4-YL)PYRIMIDIN-4-YL)AZETIDIN-3-YL)-1H-BENZO[D]IMIDAZOLE]: the IC50 was determined as 1280 nM.
Regarding `N#Cc1ccc2[nH]c(C3CCN(c4nccnc4N4CCOCC4)CC3)nc2c1` [Example 1B, 2-[1-(3-MORPHOLIN-4-YL-PYRAZIN-2-YL)-PIPERIDIN-4-YL]-1H-BENZOIMIDAZOLE-5-CARBONITRILE], the concentration for half-maximal inhibition (IC50) came out at 2000 nM.
`Cc1cccc(-c2nccnc2N2CC(c3ccc4ccccc4n3)C2)c1` [Example 58, 2-[1-(3-M-TOLYL-PYRAZIN-2-YL)-AZETIDIN-3-YL]-QUINOLINE]: the IC50 stood at 7.61 nM.
For `c1ccc2nc(C3CN(c4nccnc4N4CCCCC4)C3)ccc2c1` [Example 57], the IC50 worked out at 689 nM.
Still for that read-out and setting: to `Cc1ccc2[nH]c(C3CN(c4c(Cl)cncc4-c4ccccc4)C3)nc2c1` [Example 2B, 2-[1-(3-CHLORO-5-PHENYL-PYRIDIN-4-YL)-AZETIDIN-3-YL]-5-METHYL-1H-BENZOIMIDAZOLE] belongs 22 nM.
Regarding `Cc1ccc2[nH]c(C3CN(c4nccnc4OC4CCOCC4)C3)nc2c1` [Example 1C, 5-METHYL-2-(1-(3-(TETRAHYDRO-2H-PYRAN-4-YLOXY)PYRAZIN-2-YL)AZETIDIN-3-YL)-1H-BENZO[D]IMIDAZOLE], the IC50 worked out at 239 nM.

The values are drawn from patent publication US8946230B2, “Aryl- and heteroaryl- nitrogen-heterocyclic compounds as PDE10 inhibitors” (Amgen Inc., priority 2010, dated 2015).
